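Step 1: Grow cells in 96-well plates. Step 2: Expose to compound for 48 hours at 5 concentrations. Step 3: Interpolate endpoints linearly; if unreached, use highest concentration. Abbreviation: GI50, concentration required for 50% inhibition of growth. At the TGI there is no net growth.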
Key:
Assay in all cases: NCI anticancer screen, dose series, 48 h
[1] = test system: 786-0 renal
[2] = test system: A498 renal
[3] = test system: A549 NSCLC
[4] = test system: ACHN renal
[5] = test system: BT-549 breast
[6] = test system: CAKI-1 renal
[7] = test system: CCRF-CEM leukemia
[8] = test system: COLO 205 colon
[9] = test system: DU-145 prostate
[10] = test system: EKVX NSCLC
[11] = test system: HCC-2998 colon
[12] = test system: HCT-116 colon
[13] = test system: HCT-15 colon
[14] = test system: HL-60(TB) leukemia
[15] = test system: HOP-62 NSCLC
[16] = test system: HOP-92 NSCLC
[17] = test system: HS 578T breast
[18] = test system: HT29 colon
[19] = test system: IGROV1 ovarian
[20] = test system: K-562 leukemia
[21] = test system: KM12 colon
[22] = test system: LOX IMVI melanoma
[23] = test system: M14 melanoma
[24] = test system: MALME-3M melanoma
[25] = test system: MCF7 breast
[26] = test system: MDA-MB-231 breast
[27] = test system: MDA-MB-435
[28] = test system: MOLT-4 leukemia
[29] = test system: NCI-H226 lung
[30] = test system: NCI-H23 lung
[31] = test system: NCI-H460 lung
[32] = test system: NCI-H522 lung
[33] = test system: NCI/ADR-RES ovarian
[34] = test system: OVCAR-3 ovarian
[35] = test system: OVCAR-4 ovarian
[36] = test system: OVCAR-5 ovarian
[37] = test system: OVCAR-8 ovarian
[38] = test system: PC-3 prostate
[39] = test system: RPMI-8226 leukemia
[40] = test system: RXF 393 renal
[41] = test system: SF-268 CNS
[42] = test system: SF-295 CNS
[43] = test system: SF-539 CNS
[44] = test system: SK-MEL-2 melanoma
[45] = test system: SK-MEL-28 melanoma
[46] = test system: SK-MEL-5 melanoma
[47] = test system: SK-OV-3 ovarian
[48] = test system: SN12C renal
[49] = test system: SNB-19 CNS
[50] = test system: SNB-75 CNS
[51] = test system: SR leukemia
[52] = test system: SW-620 colon
[53] = test system: T-47D breast
[54] = test system: TK-10 renal
[55] = test system: U251 CNS
[56] = test system: UACC-62 melanoma
[57] = test system: UO-31 renal
[58] = test system: UACC-257 melanoma

Compound: C/C(=C\C1=C(Cl)C(=O)c2ccccc2C1=O)C(=O)O
- GI50 [1]: 17.6 µM
- TGI [1]: 32.3 µM
- GI50 [2]: 21.9 µM
- TGI [2]: 36.3 µM
- GI50 [3]: 21.9 µM
- TGI [3]: 43 µM
- GI50 [4]: 18.5 µM
- TGI [4]: 32.7 µM
- GI50 [5]: 14.2 µM
- TGI [5]: 27.5 µM
- GI50 [6]: 22.1 µM
- TGI [6]: 36.6 µM
- GI50 [7]: 21.8 µM
- TGI [7]: 46.2 µM
- GI50 [8]: 18.7 µM
- TGI [8]: 34 µM
- GI50 [9]: 17.6 µM
- TGI [9]: 34.6 µM
- GI50 [10]: 18.6 µM
- TGI [10]: 37.2 µM
- GI50 [11]: 18.9 µM
- TGI [11]: 33.3 µM
- GI50 [12]: 28.4 µM
- TGI [12]: > 100 µM
- GI50 [13]: 18.2 µM
- TGI [13]: 36.5 µM
- GI50 [14]: 25.4 µM
- TGI [14]: 63.5 µM
- GI50 [15]: 18.8 µM
- TGI [15]: 33.7 µM
- GI50 [16]: 18.6 µM
- TGI [16]: 33 µM
- GI50 [17]: 30.3 µM
- TGI [17]: 69.3 µM
- GI50 [18]: 20.1 µM
- TGI [18]: 36.7 µM
- GI50 [19]: 15.1 µM
- TGI [19]: 28.6 µM
- GI50 [20]: 23.1 µM
- TGI [20]: 54.9 µM
- GI50 [21]: 18.1 µM
- TGI [21]: 33.7 µM
- GI50 [22]: 17.6 µM
- TGI [22]: 38.6 µM
- GI50 [23]: 17.7 µM
- TGI [23]: 31.7 µM
- GI50 [24]: 24 µM
- TGI [24]: 40.2 µM
- GI50 [25]: 17.6 µM
- TGI [25]: 43.3 µM
- GI50 [26]: 18.6 µM
- TGI [26]: 33.8 µM
- GI50 [27]: 19.4 µM
- TGI [27]: 34.8 µM
- GI50 [28]: 28.2 µM
- TGI [28]: > 100 µM
- GI50 [29]: 19.6 µM
- TGI [29]: 37.5 µM
- GI50 [30]: 21.5 µM
- TGI [30]: 45.7 µM
- GI50 [31]: 21.9 µM
- TGI [31]: 45.1 µM
- GI50 [32]: 11.9 µM
- TGI [32]: 26.9 µM
- GI50 [33]: 21.1 µM
- TGI [33]: 46.8 µM
- GI50 [34]: 19.4 µM
- TGI [34]: 34.2 µM
- GI50 [35]: 19.9 µM
- TGI [35]: 36.3 µM
- GI50 [36]: 22.5 µM
- TGI [36]: 37.4 µM
- GI50 [37]: 22.6 µM
- TGI [37]: 45.6 µM
- GI50 [38]: 17.3 µM
- TGI [38]: 31.1 µM
- GI50 [39]: 20.2 µM
- TGI [39]: 46.5 µM
- GI50 [40]: 18.3 µM
- TGI [40]: 33.1 µM
- GI50 [41]: 18.3 µM
- TGI [41]: 32.2 µM
- GI50 [42]: 19 µM
- TGI [42]: 33.4 µM
- GI50 [43]: 17.7 µM
- TGI [43]: 31.9 µM
- GI50 [44]: 18.1 µM
- TGI [44]: 33.4 µM
- GI50 [45]: 20.2 µM
- TGI [45]: 34.6 µM
- GI50 [46]: 17.5 µM
- TGI [46]: 31.3 µM
- GI50 [47]: 19 µM
- TGI [47]: 33.1 µM
- GI50 [48]: 24.5 µM
- TGI [48]: 55.1 µM
- GI50 [49]: 17.7 µM
- TGI [49]: 31.7 µM
- GI50 [50]: 21.5 µM
- TGI [50]: 35.9 µM
- GI50 [51]: 24.2 µM
- TGI [51]: > 100 µM
- GI50 [52]: 21.7 µM
- TGI [52]: 37.4 µM
- GI50 [53]: 15.3 µM
- TGI [53]: 48.7 µM
- GI50 [54]: 23.3 µM
- TGI [54]: 38.1 µM
- GI50 [55]: 15.8 µM
- TGI [55]: 29.4 µM
- GI50 [56]: 17.2 µM
- TGI [56]: 31.5 µM
- GI50 [57]: 15.5 µM
- TGI [57]: 28.9 µM

Compound: O=c1ssc(Cl)c1Nc1c(Cl)ssc1=O
- TGI [1]: 38.2 µM
- TGI [2]: 31.7 µM
- TGI [3]: 49.8 µM
- TGI [4]: > 54.3 µM
- TGI [5]: 33.1 µM
- TGI [6]: 32 µM
- TGI [7]: > 23.5 µM
- TGI [8]: 31.5 µM
- TGI [9]: 32.3 µM
- TGI [10]: 41.4 µM
- TGI [11]: 41.3 µM
- TGI [12]: 33.9 µM
- TGI [13]: 39.6 µM
- TGI [14]: 35.1 µM
- TGI [15]: 42.4 µM
- TGI [16]: 41.6 µM
- TGI [17]: > 100 µM
- TGI [18]: 47.5 µM
- TGI [19]: 34.2 µM
- TGI [20]: 15.3 µM
- TGI [21]: 32.3 µM
- TGI [22]: 31.2 µM
- TGI [23]: 39.8 µM
- TGI [24]: 37.7 µM
- TGI [25]: > 63 µM
- TGI [26]: 41.1 µM
- TGI [27]: 37.7 µM
- TGI [28]: 7.29 µM
- TGI [29]: 79 µM
- TGI [30]: 38.8 µM
- TGI [31]: 34.6 µM
- TGI [32]: 60.5 µM
- TGI [33]: 71.4 µM
- TGI [34]: 39.4 µM
- TGI [35]: 35.8 µM
- TGI [36]: 37.3 µM
- TGI [37]: 51.3 µM
- TGI [38]: 37.9 µM
- TGI [39]: 29.9 µM
- TGI [40]: 28.3 µM
- TGI [41]: 51.8 µM
- TGI [42]: > 100 µM
- TGI [43]: 59.3 µM
- TGI [44]: 37.6 µM
- TGI [45]: > 61.8 µM
- TGI [46]: 32 µM
- TGI [47]: 59 µM
- TGI [48]: 37.9 µM
- TGI [49]: 69.1 µM
- TGI [50]: 46.5 µM
- TGI [51]: 15 µM
- TGI [52]: > 54.4 µM
- TGI [53]: 29.8 µM
- TGI [54]: 33.3 µM
- TGI [55]: 36.8 µM
- TGI [58]: 33.4 µM
- TGI [56]: > 55 µM
- TGI [57]: 32.4 µM
